Data on four compounds can be found in US11427528B2 (Zhejiang University of Technology, priority 2016, dated 2022).

Series [1] is described as follows: Stability experiment, light exposure (XRPD). It counts as physicochemical. As to conditions: 4500±500 lx, 25° C., open petri dish, XRPD compared with 0th day. As for the experimental part:
(§1) The instrument used for collecting X-ray powder diffraction (XRPD) patterns is Bruker D8 Advance diffractometer. The samples are tested at room temperature under the following conditions: 2θ scan range, 3-40°; step size, 0.02°/step; speed, 0.2 s/step.
(§2) They were placed at 4500±500 lx light exposure, and 90±5% RH humidity chamber at 25° C., respectively. The XRPD results of the 5th day and 10th day were compared with that of the 0th day.

Series [2] is described as follows: Stability experiment, high humidity (XRPD). In kind it is physicochemical. As to conditions: 90±5% RH, 25° C., open petri dish, XRPD compared with 0th day. As for the experimental part: as §1, §2
Series [3] is described as follows: Grinding test in ball mill (XRPD). In kind it is physicochemical. As to conditions: 20 Hz, 100 mg, XRPD compared with unground sample. As for the experimental part: as §1
The conditions of series [4]: cited from earlier work.
Series [5] in a line: Storage stability at room temperature. As to conditions: 3 months. In kind it is physicochemical.

The structures appear in SMILES notation. “Also recorded” adds a separate entry of the source. Where two headings read alike, the source gives them in different places.

As for `CC(C)OC(=O)C(C)(C)Oc1ccc(C(=O)c2ccc(Cl)cc2)cc1` [Form I, reference compound], the “Crystalline form after light exposure for 10 days” value in series [1] is “Form I”. Also, in series [2], the “Crystalline form after high humidity for 10 days” value is “Form I”. The “Crystalline form after grinding for 10 min” value in series [3] is recorded as “Form I”.

On to `CC(C)OC(=O)C(C)(C)Oc1ccc(C(=O)c2ccc(Cl)cc2)cc1` [Form III], for which, in series [4] (in one day at room temperature), the “Form change at room temperature” value is “transformed to Form II and Form I”.

As to `CC(C)OC(=O)C(C)(C)Oc1ccc(C(=O)c2ccc(Cl)cc2)cc1` [Form II], the “Form change at room temperature” value in series [4] (after two days at room temperature) is given as “transformed to Form I”. Besides, the “Form change after mechanical grinding” value in series [4] (mechanical grinding) is given as “transformed to Form I”.

On to `CC(C)OC(=O)C(C)(C)Oc1ccc(C(=O)c2ccc(Cl)cc2)cc1` [Form IV], for which, in series [1], the “Crystalline form after light exposure for 10 days” value was “does not change its crystalline form; also recorded: Form IV”. Besides, the “Crystalline form after high humidity for 10 days” value in series [2] is reported as “does not change its crystalline form; also recorded: Form IV”. Also, the “Crystalline form after grinding for 10 min” value in series [3] is listed as “does not change its crystalline form; also recorded: Form IV”. For the same compound, the “Stability at room temperature” value in series [5] is listed as “remains stable”.
